From patent publication US11447486B2, “2-amino-benzimidazole derivatives and their use as 5-lipoxygenase and/or prostaglandin E synthase inhibitors” (INSTITUT PASTEUR KOREA, priority 2014, dated 2022)

What was measured:
[1] = tested on: Rat whole blood (RWB); assay: LTB4 secretion assay in RWB (rat whole blood); format: cell-based; details: Rattus norvegicus
Description: Rat blood was drawn from caudal vena cava from male Sprague Dawley rat (6-9 weeks old) in vacuette coated with sodium heparin (Greiner bio-one, Cat #455051). The blood was pooled and diluted with RPMI (WelGENE, Cat #LM 011-05) to 1:1. The diluted blood was aliquoted into 96 well plate (200 ul per well) and compounds were added in dose response to a desired concentration ranging from 2.5 nM to 50 uM. After 15 min of pre-incubation at 37° C., calcium ionophore (A23187) was added to the final concentration of 10 uM. After 10 min of further incubation at 37° C., the LTB4 production was stopped by diluting the reaction mixture with ice cold PBS (1:4 dilutions). Cells were removed by centrifugation at 1000×g, 4° C. for 10 min, and the supernatant was transferred and then the quantification of LTB4 was done with Leukotriene B4 EIA kit (Cayman, Cat #520111) as instructed.

[2] = biological target: T1, human 5-LOX (Homo sapiens, UniProt P09917); assay: 5-LOX enzyme activity, fluorescence method (5-HPETE, H2DCFDA); format: biochemical; details: read-out: 5-LO (IC50)
T1 construct: purchased Cayman 60402; host or cells: insect cells (lysate)
T1 sequence (P09917 1-674): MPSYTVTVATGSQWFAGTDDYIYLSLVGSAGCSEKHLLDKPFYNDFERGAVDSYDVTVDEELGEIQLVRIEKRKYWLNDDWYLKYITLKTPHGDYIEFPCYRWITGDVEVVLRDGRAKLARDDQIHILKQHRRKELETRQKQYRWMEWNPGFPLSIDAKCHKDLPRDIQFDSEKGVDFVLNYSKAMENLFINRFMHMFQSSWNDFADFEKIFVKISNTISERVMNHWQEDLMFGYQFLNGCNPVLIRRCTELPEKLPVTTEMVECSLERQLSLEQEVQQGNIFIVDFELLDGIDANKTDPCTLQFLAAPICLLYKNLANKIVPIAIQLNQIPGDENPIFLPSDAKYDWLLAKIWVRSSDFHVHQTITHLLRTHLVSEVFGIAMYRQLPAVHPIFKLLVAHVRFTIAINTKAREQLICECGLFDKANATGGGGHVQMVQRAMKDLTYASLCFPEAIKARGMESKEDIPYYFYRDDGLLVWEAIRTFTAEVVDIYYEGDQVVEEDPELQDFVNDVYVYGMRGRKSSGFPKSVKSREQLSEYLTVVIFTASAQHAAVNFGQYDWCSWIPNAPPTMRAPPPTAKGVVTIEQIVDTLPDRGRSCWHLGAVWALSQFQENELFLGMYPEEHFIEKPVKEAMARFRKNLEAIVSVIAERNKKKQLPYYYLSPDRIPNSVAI
Procedure, shortened: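 Fluorescence-based read-out, run entirely at room temperature. Enzyme mixture was exposed to a dose range of compound from 0.5 nM to 10 uM for 5 min before ATP and arachidonic acid were added to final levels of 100 uM and 3 uM.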

[3] = tested on: Rat basophilic leukemia (RBL) cells; assay: LTB4 secretion assay in RBL (rat basophilic leukemia cells); format: cell-based; details: Rattus norvegicus, RBL
Procedure, shortened: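 LTB4 released into supernatant was measured by EIA after 10 min at 37 °C with arachidonic acid (2.5 uM final) and calcium ionophore A23187 (5 uM final). Before stimulation, cells plated 2×10^4/well overnight received compound doses (5 nM to 100 uM) for 15 min in 0.5% FBS medium.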

Structure (SMILES)	EC50 [1] [µM]	IC50 [2] [nM]	EC50 [3] [µM]
CNc1nc2ccc(N)cc2n1Cc1ccc(Oc2ccc(Cl)cc2)cc1 [Compound 219]	> 20	< 1000	< 10
CC(C)(O)Cn1c(NCc2ccc(Oc3ccc(Cl)cn3)cc2)nc2ccc(N)cc21 [Compound 203]	> 20	< 1000	< 10
CN(C)c1nc2ccc(N3CCC(C(=O)c4ccc(OC(F)(F)F)cc4)C3)cc2[nH]1 (stereo not drawn) [Compound 190]	> 20	< 1000	< 10
CN(C)c1nc2ccc(NCc3ccc(OCc4ncco4)cc3)cc2[nH]1 [Compound 233]	< 10	< 1000	< 10
Cn1c(NCc2ccc(Oc3ccc(C(F)(F)F)cn3)cc2)nc2ccc(NC3COC3)cc21 [Compound 284]	< 10	< 1000	< 10
Cn1nc(Nc2ccc3nc(NCc4ccc(Oc5ncc(Cl)cn5)cc4)n(C)c3c2)cc1CF [Compound 538]	< 10	< 1000	< 10
Cc1cc(Nc2ccc3nc(NCc4ccc(Oc5ncc(OC(F)(F)F)cn5)cc4)n(C)c3c2)n[nH]1 [Compound 482]	< 10	< 1000	< 10
OCCNc1nc2ccc(NC3COC3)cc2n1Cc1ccc(Oc2ccc(Cl)cn2)cc1 [Compound 251]	< 10	< 1000	< 10
CC(C)(C)Nc1nc2ccc(N)cc2n1CC(=O)Nc1ccc(OC(F)(F)F)cc1 [Compound 67]	> 20	< 1000	< 10
CCC(Nc1nc2ccc(Nc3cc(C)[nH]n3)cc2n1C)c1ccc(Oc2ncc(C(F)(F)F)cn2)cc1 (stereo not drawn) [Compound 534]	< 10	< 1000	< 10
CC(C)(C)Nc1nc2ccc(N)cc2n1CCOc1ccc(OC(F)(F)F)cc1 [Compound 65]	< 10	< 1000	< 10
Cc1cnc(Nc2ccc3nc(NCc4ccc(Oc5ncc(Cl)cn5)cc4)n(C)c3c2)s1 [Compound 492]	< 10	< 1000	< 10
Cc1cc(Nc2ccc3nc(NCc4ccc(N(C)c5ncc(Cl)cn5)cc4)n(C)c3c2)n[nH]1 [Compound 471]	< 10	< 1000	< 10
Cn1c(NCc2ccc(Oc3ncc(F)cn3)cc2)nc2ccc(N)cc21 [Compound 336]	< 10	< 1000	10 to 20
Nc1ccc2nc(NCc3ccc(OCCC(F)(F)F)cc3)[nH]c2c1 [Compound 176]	< 10	< 1000	< 10
Cc1cc(Nc2ccc3nc(NCc4ccc(Oc5ccc(C(F)(F)F)cn5)cc4)n(C)c3c2)n[nH]1 [Compound 495]	< 10	< 1000	< 10
CCC(Nc1ccc2[nH]c(N(C)C)nc2c1)c1ccc(Oc2ccc(Cl)cc2)cc1 (stereo not drawn) [Compound 128]	> 20	< 1000	< 10
CCn1c(NCc2ccc(Oc3ncc(C(F)(F)F)cn3)cc2F)nc2ccc(Nc3cc(C)[nH]n3)cc21 [Compound 540]	< 10	< 1000	< 10
Clc1ccc(Oc2ccc(CNc3nc4cc(NCc5ccccn5)ccc4[nH]3)cc2)cc1 [Compound 149]	< 10	< 1000	< 10

Structure (SMILES)	EC50 [1] [µM]	IC50 [2] [nM]	EC50 [3] [µM]
Cn1c(NCc2ccc(Oc3ncc(Cl)cn3)cc2)nc2ccc(Nc3cc(C(F)(F)F)[nH]n3)cc21 [Compound 475]	< 10	< 1000	< 10
Cn1c(NCc2ccc(Oc3ccc(Cl)cn3)cc2)nc2ccc(Nc3ccccn3)cc21 [Compound 448]	< 10	1000 to 10000	< 10
CCC(Nc1nc2ccc(Nc3cc(C(F)(F)F)n(C)n3)cc2n1C)c1ccc(Oc2ncc(Cl)cn2)cc1 (stereo not drawn) [Compound 505]	< 10	< 1000	< 10
Cn1c(NCc2ccc(Oc3ccc(Cl)cc3)nc2)nc2ccc(NC3COC3)cc21 [Compound 307]	> 20	< 1000	10 to 20
Cn1c(NCc2ccc(Oc3ncc(Cl)cn3)cc2)nc2ccc(NC(C)(C)C(N)=O)cc21 [Compound 358]	< 10	< 1000	< 10
Cn1c(NCc2ccc(Oc3ccc(Cl)cn3)cn2)nc2ccc(NC3COC3)cc21 [Compound 300]	10 to 20	< 1000	< 10
CN(C)c1ccc2nc(NCc3ccc(Oc4ccc(Cl)cn4)cc3)n(C)c2c1 [Compound 253]	< 10	< 1000	< 10
CN(C)c1nc2cc(NCc3ccc(Oc4ccc(Cl)cc4)cc3)ccc2[nH]1 [Compound 123]	< 10	< 1000	< 10
CCn1c(NCc2ccc(Oc3ncc(Cl)cn3)cc2)nc2ccc(Nc3cc(C(F)(F)F)n(C)n3)cc21 [Compound 504]	< 10	1000 to 10000	< 10
CN(C)c1nc2ccc(NCc3ccc(-c4ccc(Cl)cn4)cc3)cc2[nH]1 [Compound 197]	> 20	< 1000	< 10
Cn1c(NCc2ccc(Oc3ccc(Cl)cc3)cc2)nc2ccc(NC3COC3)cc21 [Compound 184]	< 10	< 1000	< 10
Nc1ccc2[nH]c(NCc3ccc(OC(F)(F)F)cc3)nc2c1 [Compound 79]	< 10	< 1000	< 10
CCn1c(NCc2ccc(Oc3ccc(Cl)cn3)cc2)nc2ccc(NC3COC3)cc21 [Compound 270]	< 10	< 1000	< 10
Cn1nc(C(F)F)cc1Nc1ccc2nc(NCc3ccc(Oc4ncc(Cl)cn4)cc3)n(C)c2c1 [Compound 533]	< 10	< 1000	< 10
Nc1ccc2[nH]c(NCc3ccc(Oc4ccc(Cl)cc4Cl)cc3)nc2c1 [Compound 135]	10 to 20	< 1000	< 10
Nc1ccc2[nH]c(NCc3ccc(Oc4ccc(OC(F)(F)F)cc4)cc3)nc2c1 [Compound 88]	< 10	< 1000	< 10
Cc1[nH]nc(Nc2ccc3nc(NCc4ccc(Oc5ncc(Cl)cn5)cc4)n(C)c3c2)c1Cl [Compound 481]	< 10	< 1000	< 10
Cn1c(NCc2ccc(Oc3ccc(C(F)(F)F)cn3)cc2)nc2c(F)cc(NC3COC3)cc21 [Compound 552]	10 to 20	< 1000	< 10
